Assay results from patent US9868695B2 (priority 2014, dated 2018).

System: microtubules in HCT-116 cells
Assay: Effect of compounds on microtubules, confocal microscopy
Format: cell-based, Human
Settings: 100 nM, 24 h, anti-α-tubulin staining, compared to control
Method: For detection of tubulins, HCT-116 cells (1×10^5 cells/well) were seeded on to 18 mm square cover slips in six well plates in complete medium. […] After the treatment period, cells were fixed in 4% paraformaldehyde for 10 min at room temperature and permeabilized using 0.5% Triton-X in PBS for 5 min. The cells were blocked with 10% goat serum for 20 min at room temperature. Microtubules were detected with a monoclonal α-tubulin antibody (Sigma, Catalogue number: T9026) diluted 1:100 in 0.1% Triton X-100 in PBS for 1 h at room temperature and Alexa Fluor 488 conjugated secondary antibody (Invitrogen) diluted 1:500 in PBS for 1 h at room temperature. Cells were then washed three times in PBS and stained with 4′,6-diamidino-2-phenylindole (DAPI 1 μg/ml in PBS). The cover slips were mounted over glass slides and cells were imaged by a laser scanning confocal microscope (Olympus Fluoview FV1000). The promising candidates identified through P-gp screening and antiproliferative screening were further studied for tubulin polymerization inhibition activity.

Question: For COc1cc2c(c(OC)c1OC)-c1ccc(Nc3ccc(Cl)c(C(F)(F)F)c3)c(=O)cc1[C@@H](NC(C)=O)CC2 [Compound 1g, N-[(7S)-1,2,3-Trimethoxy-9-oxo-10-[3-(trifluoromethyl)-4-chloro-phenylamino]-5,6,7,9-tetrahydrobenzo[a]heptalen-7-yl]acetamide], which “disruption of microtubule assembly” value is on record?
Answer: Its value is “remarkable disruption and loss of microtubules”.
